Columns and labels:
[1] = target: T1, 3-phosphoinositide-dependent protein kinase 1 (Homo sapiens, UniProt O15530)
T1 sequence (O15530 whole entry): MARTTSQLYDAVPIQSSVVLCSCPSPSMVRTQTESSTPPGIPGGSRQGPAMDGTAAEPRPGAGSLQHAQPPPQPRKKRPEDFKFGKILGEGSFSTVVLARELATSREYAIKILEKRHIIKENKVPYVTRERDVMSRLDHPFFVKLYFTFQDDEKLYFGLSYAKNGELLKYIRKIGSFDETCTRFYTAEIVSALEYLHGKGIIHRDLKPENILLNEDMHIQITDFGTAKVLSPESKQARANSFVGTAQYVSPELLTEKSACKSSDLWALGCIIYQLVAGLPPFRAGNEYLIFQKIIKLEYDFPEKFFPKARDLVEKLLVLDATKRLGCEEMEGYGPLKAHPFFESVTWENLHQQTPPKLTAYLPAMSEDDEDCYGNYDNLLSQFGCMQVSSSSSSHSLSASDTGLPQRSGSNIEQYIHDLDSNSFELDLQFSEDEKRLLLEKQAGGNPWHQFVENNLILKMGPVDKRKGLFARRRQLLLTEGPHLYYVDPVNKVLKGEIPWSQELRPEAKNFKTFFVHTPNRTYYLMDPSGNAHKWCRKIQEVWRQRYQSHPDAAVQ
Description: Inhibition of His-tagged-truncated human PDK1 preincubated with substrate biotinylated-AKT3 for 30 mins measured after 3 hrs by Scintillation proximity assay

[2] = target: RAC-alpha serine/threonine-protein kinase (Homo sapiens, UniProt P31749); assay: Inhibition of AKT1
Chain of RAC-alpha serine/threonine-protein kinase (P31749 whole entry): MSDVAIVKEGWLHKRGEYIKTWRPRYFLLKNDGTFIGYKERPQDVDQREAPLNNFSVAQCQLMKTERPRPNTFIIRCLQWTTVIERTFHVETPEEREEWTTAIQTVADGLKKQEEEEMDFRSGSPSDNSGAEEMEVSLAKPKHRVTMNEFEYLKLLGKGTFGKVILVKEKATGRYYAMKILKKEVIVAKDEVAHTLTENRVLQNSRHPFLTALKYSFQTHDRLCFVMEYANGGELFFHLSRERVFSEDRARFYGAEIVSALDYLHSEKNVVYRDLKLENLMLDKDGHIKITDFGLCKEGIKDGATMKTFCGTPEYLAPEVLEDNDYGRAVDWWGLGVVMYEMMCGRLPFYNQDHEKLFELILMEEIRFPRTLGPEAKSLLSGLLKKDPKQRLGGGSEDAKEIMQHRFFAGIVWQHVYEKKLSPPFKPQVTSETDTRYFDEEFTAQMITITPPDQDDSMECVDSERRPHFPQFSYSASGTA

[3] = target: T2, Serine/threonine-protein kinase Sgk1 (Homo sapiens, UniProt O00141); assay: Inhibition of SGK1
T2 sequence (O00141 whole entry): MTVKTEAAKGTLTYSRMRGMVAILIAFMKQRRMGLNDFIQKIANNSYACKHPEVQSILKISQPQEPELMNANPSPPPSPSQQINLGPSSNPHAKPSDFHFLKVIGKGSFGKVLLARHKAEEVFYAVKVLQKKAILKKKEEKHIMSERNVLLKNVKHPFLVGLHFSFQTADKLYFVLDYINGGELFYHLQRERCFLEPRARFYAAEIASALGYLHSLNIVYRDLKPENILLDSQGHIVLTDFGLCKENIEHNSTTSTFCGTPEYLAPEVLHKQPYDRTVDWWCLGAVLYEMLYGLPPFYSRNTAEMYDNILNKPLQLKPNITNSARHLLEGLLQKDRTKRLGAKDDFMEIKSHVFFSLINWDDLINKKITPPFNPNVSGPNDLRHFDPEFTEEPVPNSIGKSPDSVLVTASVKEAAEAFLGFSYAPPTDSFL

[4] = target: T3, Tyrosine-protein kinase JAK3 (Homo sapiens, UniProt P52333); assay: Inhibition of JAK3
T3 sequence (P52333 whole entry): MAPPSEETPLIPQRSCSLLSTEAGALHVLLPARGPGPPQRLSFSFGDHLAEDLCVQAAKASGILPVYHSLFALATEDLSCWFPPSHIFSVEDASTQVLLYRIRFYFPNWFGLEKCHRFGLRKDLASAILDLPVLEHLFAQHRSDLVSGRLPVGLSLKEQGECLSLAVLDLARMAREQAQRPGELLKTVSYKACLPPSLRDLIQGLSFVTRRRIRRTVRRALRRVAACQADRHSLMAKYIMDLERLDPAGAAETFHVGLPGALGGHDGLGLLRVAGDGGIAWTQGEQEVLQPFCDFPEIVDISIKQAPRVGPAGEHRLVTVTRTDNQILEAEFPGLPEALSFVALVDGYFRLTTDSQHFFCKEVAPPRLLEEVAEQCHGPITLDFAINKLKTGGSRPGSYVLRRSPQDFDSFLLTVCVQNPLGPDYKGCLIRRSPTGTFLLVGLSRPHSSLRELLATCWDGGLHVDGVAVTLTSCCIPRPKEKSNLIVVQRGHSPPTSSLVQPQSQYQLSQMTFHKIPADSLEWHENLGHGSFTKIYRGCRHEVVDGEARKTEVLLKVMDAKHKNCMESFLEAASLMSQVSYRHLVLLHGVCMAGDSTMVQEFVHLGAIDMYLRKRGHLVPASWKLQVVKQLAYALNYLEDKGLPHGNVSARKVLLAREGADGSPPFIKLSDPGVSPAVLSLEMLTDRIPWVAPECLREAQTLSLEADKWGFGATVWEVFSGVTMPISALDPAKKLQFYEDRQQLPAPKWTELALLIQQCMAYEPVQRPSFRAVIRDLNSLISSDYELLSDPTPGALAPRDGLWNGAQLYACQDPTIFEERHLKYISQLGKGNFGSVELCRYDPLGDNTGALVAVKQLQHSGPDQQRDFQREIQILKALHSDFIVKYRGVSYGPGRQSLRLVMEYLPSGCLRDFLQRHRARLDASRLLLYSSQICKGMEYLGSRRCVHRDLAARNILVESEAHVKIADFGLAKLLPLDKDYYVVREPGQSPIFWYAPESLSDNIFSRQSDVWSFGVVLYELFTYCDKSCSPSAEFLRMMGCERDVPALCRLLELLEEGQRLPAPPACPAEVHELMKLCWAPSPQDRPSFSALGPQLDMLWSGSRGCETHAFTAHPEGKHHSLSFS

[5] = target: Phosphatidylinositol 4,5-bisphosphate 3-kinase catalytic subunit alpha isoform (Homo sapiens, UniProt P42336); assay: Inhibition of PI3Kalpha
Chain of Phosphatidylinositol 4,5-bisphosphate 3-kinase catalytic subunit alpha isoform (P42336 whole entry, canonical isoform): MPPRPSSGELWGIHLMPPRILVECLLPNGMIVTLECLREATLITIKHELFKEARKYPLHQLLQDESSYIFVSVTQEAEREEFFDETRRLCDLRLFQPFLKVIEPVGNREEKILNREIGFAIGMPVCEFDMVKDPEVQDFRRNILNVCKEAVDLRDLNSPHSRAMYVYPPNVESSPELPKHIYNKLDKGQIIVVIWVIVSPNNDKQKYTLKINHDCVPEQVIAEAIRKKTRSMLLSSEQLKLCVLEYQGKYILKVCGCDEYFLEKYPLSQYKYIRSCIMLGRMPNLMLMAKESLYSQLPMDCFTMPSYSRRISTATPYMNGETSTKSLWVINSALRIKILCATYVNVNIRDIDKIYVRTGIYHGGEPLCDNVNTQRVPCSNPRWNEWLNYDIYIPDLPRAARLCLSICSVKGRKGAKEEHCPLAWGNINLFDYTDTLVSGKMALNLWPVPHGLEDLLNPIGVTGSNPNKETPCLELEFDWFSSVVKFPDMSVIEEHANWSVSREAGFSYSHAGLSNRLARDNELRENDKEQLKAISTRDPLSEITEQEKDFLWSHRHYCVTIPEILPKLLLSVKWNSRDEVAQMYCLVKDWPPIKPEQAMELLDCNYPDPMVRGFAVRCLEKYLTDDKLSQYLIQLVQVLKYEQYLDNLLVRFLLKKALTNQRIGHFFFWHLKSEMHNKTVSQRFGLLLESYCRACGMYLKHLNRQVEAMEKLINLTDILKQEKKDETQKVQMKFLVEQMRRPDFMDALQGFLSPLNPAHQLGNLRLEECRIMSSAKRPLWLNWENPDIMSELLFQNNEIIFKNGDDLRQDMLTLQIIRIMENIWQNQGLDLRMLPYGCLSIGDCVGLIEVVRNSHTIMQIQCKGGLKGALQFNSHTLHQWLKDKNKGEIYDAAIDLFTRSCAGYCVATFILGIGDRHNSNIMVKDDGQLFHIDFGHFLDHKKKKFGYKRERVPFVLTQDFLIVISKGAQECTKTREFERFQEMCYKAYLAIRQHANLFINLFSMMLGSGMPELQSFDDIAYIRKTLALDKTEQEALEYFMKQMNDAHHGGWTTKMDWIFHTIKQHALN

[6] = target: T1, 3-phosphoinositide-dependent protein kinase 1; assay: Inhibition of human PDK1 preincubated with substrate biotinylated PDKtide for 30 mins measured after 4 hrs by Scintillation proximity assay
[7] = target: T4, Inhibitor of nuclear factor kappa-B kinase subunit alpha (Homo sapiens, UniProt O15111); assay: Inhibition of IKK1
T4 sequence (O15111 whole entry): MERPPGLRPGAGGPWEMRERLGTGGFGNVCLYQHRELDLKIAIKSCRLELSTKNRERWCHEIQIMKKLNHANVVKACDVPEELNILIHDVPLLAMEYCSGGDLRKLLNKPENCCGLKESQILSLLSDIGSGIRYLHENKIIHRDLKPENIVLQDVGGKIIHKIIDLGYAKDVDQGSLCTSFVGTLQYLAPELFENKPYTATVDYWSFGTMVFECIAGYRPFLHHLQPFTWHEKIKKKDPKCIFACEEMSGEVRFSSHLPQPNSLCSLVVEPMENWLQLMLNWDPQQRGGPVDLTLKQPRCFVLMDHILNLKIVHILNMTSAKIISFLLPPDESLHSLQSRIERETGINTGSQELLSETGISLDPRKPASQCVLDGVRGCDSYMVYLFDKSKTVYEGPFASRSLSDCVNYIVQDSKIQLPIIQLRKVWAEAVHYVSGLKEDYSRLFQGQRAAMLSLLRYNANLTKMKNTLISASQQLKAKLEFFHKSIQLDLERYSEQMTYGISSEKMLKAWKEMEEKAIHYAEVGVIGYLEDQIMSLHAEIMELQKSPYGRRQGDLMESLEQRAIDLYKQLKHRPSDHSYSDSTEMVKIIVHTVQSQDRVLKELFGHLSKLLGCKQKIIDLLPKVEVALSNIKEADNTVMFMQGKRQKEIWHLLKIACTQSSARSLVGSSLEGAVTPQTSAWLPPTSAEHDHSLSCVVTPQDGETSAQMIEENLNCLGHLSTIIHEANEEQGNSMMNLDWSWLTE

[8] = target: T5, Serine/threonine-protein kinase Chk1 (Homo sapiens, UniProt O14757); assay: Inhibition of CHK1
T5 sequence (O14757 whole entry): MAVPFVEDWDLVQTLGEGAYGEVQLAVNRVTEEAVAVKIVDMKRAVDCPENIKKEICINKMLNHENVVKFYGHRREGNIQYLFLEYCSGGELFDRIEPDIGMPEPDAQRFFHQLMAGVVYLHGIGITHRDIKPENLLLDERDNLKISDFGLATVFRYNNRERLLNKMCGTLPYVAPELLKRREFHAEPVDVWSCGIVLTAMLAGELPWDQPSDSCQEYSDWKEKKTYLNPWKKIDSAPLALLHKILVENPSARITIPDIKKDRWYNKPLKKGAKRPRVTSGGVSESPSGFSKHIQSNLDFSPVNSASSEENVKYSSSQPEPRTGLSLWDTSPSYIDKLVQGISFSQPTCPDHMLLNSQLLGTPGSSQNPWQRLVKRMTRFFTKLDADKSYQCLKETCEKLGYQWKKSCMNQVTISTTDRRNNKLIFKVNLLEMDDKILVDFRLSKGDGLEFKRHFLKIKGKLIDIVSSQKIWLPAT

[9] = target: T6, Mitogen-activated protein kinase kinase kinase 5 (Homo sapiens, UniProt Q99683); assay: Inhibition of ASK1
T6 sequence (Q99683 whole entry): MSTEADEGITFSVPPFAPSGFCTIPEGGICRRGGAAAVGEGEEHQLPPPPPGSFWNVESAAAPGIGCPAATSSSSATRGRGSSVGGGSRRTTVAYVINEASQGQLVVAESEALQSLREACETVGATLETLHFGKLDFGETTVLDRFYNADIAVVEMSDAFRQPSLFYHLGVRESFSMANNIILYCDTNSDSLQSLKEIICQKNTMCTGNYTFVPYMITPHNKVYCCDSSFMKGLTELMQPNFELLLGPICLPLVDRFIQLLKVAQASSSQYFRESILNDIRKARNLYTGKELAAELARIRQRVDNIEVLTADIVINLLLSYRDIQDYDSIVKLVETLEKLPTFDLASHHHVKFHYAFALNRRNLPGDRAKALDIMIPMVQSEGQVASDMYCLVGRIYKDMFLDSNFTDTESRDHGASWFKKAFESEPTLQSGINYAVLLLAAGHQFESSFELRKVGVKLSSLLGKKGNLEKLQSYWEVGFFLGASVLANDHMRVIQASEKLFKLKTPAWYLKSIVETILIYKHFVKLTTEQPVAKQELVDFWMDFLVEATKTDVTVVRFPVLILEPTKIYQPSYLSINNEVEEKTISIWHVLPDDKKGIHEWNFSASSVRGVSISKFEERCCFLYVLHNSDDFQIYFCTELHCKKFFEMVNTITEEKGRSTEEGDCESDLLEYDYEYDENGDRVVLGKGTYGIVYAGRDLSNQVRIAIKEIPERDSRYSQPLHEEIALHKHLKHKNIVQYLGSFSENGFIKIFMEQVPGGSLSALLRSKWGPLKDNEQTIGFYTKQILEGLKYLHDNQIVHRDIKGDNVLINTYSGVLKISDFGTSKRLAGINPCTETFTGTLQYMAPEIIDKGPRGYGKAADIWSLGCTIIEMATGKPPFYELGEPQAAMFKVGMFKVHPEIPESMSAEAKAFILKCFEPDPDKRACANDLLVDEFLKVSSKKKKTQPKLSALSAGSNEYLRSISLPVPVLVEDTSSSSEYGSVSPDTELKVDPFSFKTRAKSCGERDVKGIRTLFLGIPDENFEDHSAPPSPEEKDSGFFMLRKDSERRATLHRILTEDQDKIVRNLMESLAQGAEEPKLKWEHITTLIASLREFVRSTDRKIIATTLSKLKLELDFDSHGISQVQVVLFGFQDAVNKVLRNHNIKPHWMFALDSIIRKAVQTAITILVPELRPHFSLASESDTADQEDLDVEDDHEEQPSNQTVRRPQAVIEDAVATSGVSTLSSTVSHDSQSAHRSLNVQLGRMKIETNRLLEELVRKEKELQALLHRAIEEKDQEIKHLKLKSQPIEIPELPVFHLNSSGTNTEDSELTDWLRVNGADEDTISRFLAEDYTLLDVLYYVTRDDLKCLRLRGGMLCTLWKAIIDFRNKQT

[10] = target: Ribosomal protein S6 kinase beta-1 (Homo sapiens, UniProt P23443); assay: Inhibition of p70S6K
Chain of Ribosomal protein S6 kinase beta-1 (P23443 whole entry): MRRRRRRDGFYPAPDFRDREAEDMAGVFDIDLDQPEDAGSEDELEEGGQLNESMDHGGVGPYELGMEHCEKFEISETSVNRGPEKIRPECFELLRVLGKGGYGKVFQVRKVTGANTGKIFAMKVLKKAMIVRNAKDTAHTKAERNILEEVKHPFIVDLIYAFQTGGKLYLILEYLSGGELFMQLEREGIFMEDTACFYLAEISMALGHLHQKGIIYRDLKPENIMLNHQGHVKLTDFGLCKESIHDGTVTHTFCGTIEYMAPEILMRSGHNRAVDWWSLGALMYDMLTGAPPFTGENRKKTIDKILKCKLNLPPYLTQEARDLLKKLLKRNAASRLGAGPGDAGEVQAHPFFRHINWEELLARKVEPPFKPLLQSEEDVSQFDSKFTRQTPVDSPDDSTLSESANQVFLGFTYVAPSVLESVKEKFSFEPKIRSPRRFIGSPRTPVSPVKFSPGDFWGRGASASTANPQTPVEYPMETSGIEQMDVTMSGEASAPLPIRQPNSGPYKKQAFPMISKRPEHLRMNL

[11] = target: Insulin-like growth factor 1 receptor (Homo sapiens, UniProt P08069); assay: Inhibition of IGF1R
Insulin receptor = Insulin receptor (Homo sapiens, UniProt P06213); assay: Inhibition of INS
Chain of Insulin receptor (P06213 28-758 limits assumed): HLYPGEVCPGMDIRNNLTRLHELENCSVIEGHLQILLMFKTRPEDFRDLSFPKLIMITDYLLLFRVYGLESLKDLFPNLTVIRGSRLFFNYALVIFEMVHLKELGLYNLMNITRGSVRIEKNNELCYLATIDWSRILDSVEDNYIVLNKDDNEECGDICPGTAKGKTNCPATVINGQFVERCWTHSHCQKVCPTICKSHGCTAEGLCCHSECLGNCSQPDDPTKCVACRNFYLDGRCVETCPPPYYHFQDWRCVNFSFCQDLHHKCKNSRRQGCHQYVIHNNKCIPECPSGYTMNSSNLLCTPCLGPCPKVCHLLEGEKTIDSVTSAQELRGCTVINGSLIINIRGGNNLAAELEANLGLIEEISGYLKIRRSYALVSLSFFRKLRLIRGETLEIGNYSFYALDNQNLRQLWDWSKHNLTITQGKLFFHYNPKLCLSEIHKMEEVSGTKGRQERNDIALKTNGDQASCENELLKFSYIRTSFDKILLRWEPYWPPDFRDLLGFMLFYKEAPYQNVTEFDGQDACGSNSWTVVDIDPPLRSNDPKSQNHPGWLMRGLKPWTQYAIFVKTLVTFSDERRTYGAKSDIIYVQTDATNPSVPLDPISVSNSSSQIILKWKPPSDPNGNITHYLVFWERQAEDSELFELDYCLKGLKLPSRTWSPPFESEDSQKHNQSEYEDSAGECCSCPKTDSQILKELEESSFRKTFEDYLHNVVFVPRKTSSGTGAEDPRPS
Chain of Insulin receptor (P06213 763-1382 limits assumed): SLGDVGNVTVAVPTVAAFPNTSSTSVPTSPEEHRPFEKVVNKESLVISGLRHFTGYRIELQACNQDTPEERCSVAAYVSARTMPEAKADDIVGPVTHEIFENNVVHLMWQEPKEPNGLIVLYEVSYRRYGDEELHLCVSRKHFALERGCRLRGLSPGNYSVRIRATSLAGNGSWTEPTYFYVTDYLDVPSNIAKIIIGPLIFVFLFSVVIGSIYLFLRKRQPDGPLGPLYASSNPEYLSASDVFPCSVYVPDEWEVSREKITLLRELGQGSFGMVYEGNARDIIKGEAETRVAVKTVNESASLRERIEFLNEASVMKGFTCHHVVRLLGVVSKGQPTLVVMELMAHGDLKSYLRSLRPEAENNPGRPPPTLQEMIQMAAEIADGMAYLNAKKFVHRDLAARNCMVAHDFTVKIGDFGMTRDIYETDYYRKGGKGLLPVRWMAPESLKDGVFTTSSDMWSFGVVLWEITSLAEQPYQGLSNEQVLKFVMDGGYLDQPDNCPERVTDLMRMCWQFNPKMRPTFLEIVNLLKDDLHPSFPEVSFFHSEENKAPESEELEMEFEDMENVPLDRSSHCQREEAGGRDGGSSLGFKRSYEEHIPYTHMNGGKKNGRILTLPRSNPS

[12] = target: Cyclin-dependent kinase 2 (Homo sapiens, UniProt P24941); assay: Inhibition of CDK2
Aurora kinase A = target: T7, Aurora kinase A (Homo sapiens, UniProt O14965); assay: Inhibition of Aurora A
T7 sequence (O14965 whole entry): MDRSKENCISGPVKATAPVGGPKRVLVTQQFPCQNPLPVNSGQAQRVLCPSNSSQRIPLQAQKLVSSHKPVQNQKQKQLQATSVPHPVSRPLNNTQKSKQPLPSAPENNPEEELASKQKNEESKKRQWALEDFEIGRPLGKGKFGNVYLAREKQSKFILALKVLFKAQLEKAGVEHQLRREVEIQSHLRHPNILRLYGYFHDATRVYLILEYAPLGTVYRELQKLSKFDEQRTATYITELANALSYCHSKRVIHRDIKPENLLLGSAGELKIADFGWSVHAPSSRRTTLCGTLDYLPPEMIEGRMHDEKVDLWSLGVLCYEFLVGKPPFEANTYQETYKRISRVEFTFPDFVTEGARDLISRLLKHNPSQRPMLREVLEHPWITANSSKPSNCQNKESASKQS

[13] = target: Mitogen-activated protein kinase 8 (Homo sapiens, UniProt P45983); assay: Inhibition of JNK1
Chain of Mitogen-activated protein kinase 8 (P45983 whole entry): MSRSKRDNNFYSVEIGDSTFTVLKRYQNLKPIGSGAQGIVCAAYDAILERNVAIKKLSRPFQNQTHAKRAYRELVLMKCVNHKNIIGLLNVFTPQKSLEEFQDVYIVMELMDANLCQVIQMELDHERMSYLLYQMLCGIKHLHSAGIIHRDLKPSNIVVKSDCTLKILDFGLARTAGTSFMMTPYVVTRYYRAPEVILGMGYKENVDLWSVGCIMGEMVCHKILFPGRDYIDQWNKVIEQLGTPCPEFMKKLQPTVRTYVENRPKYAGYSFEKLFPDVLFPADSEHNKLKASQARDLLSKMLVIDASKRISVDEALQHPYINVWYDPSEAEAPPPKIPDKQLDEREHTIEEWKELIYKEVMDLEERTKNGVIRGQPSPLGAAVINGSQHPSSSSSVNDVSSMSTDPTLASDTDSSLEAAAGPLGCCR

[14] = target: Vascular endothelial growth factor receptor 2 (Homo sapiens, UniProt P35968); assay: Inhibition of VEGFR2

c1cc(-c2cc[nH]n2)ccn1
IC50 [1]: 326 µM

NC(=O)c1[nH]ncc1N
IC50 [1]: 200 µM

NC(=O)c1cccc2cc[nH]c12
IC50 [1]: 97.5 µM

Nc1cc(-c2ccco2)n[nH]1
IC50 [1]: 313 µM

Nc1nccc(-c2ccc3c(N)n[nH]c3c2)n1
IC50 [2]: > 10 µM | IC50 [3]: > 10 µM | IC50 [4]: 0.99 µM | IC50 [5]: > 10 µM | IC50 [6]: 0.37 µM | IC50 [7]: 0.1 µM | IC50 [8]: > 10 µM | IC50 [9]: 5.69 µM | IC50 [10]: 6.34 µM | IC50 [11]: > 10 µM | IC50 (Insulin receptor): > 10 µM | IC50 [12]: 0.28 µM | IC50 (Aurora kinase A): 0.39 µM | IC50 [13]: > 10 µM | IC50 [14]: 0.84 µM

Nc1cc(-c2ccc3c(N)n[nH]c3c2)ccn1
IC50 [6]: 7.28 µM

Nc1nc(N)c2[nH]cnc2n1 [2,6-DIAMINOPURINE]
IC50 [1]: 50.8 µM

c1ccc(-c2nccs2)cc1 [2-PHENYLTHIAZOLE]
IC50 [1]: 95.1 µM

Nc1cc2ccccc2cn1 [ISOQUINOLIN-3-AMINE]
IC50 [1]: 376 µM

Reference: ChEMBL document CHEMBL1687694, “Aminoindazole PDK1 Inhibitors: A Case Study in Fragment-Based Drug Discovery” (ACS Med Chem Lett, 2010)
